Patent US20060111289A1, “Compositions and methods of using Alpha-fetoprotein growth inhibitory peptides” (Serometrix, LLC,, priority 2004, published 2006)

B1: α2-antiplasma: positive control in the platelet aggregation assay (protein, UniProt P08697 40-491, looked up)
Alpha-2-antiplasmin: NQEQVSPLTLLKLGNQEPGGQTALKSPPGVCSRDPTPEQTHRLARAMMAFTADLFSLVAQTSTCPNLILSPLSVALALSHLALGAQNHTLQRLQQVLHAGSGPCLPHLLSRLCQDLGPGAFRLAARMYLQKGFPIKEDFLEQSEQLFGAKPVSLTGKQEDDLANINQWVKEATEGKIQEFLSGLPEDTVLLLLNAIHFQGFWRNKFDPSLTQRDSFHLDEQFTVPVEMMQARTYPLRWFLLEQPEIQVAHFPFKNNMSFVVLVPTHFEWNVSQVLANLSWDTLHPPLVWERPTKVRLPKLYLKHQMDLVATLSQLGLQELFQAPDLRGISEQSLVVSGVQHQSTLELSEVGVEAAAATSIAMSRMSLSSFSVNRPFLFFIFEDTTGLPLFVGSVRNPNPSAPRELKEQQDSPGNKDFLQSLKGFPRGDKLFGPDLKLVPPMEEDYPQFGSPK

What was measured:
[1] = Estrogen fetotoxicity; design: concentration or dose not given beside the values; conditions: in vivo
[2] = tested on: 6WI-1 mammary tumor cells; test: 6WI-1 mammary tumor in 15-day old mouse pups (6 day assay); type: in vivo; design: % Inhibition Of Activity: 6WI-1 Pup Ascites: concentration or dose not given beside the values; conditions: mouse pups
Description: As an alternative model of the 6WI-I mammary tumor in adult mice, an inocula of 1×10^6 tumor cells injected into 15-day old mouse pups provided a 6 day rather than a 12 day assay and replicated the same tumor growth suppression by GIP.

[3] = tested on: human kidney tumor cell line
[4] = tested on: immature mouse uterine growth; test: E2-activated immature mouse uterine growth assay; type: in vivo; design: concentration or dose not given beside the values
[5] = tested on: immature mouse uterine growth; test: E2-activated immature mouse uterine growth assay; type: in vivo; design: % Inhibition Of Activity: Uterine Growth: concentration or dose not given beside the values; conditions: mouse, in vivo
Experimental: FIG. 3 presents exemplary data showing the growth suppressive activities of the oligomeric forms of P149, cyclic versus linear, are depicted in various in vitro and in vivo models. Biological activity was determined by three growth-dependent bioassays, namely; • Panel-A and A1) an immature rodent uterine bioassay; • Panel-B and B 1) an in vitro MCF-7 foci assay; • Panel-C and C1) an in vitro tumor cell cytostatic assessment. […] See text for details. Scrambled peptide=P327. […]

[6] = tested on: human platelets; test: Platelet aggregation in human platelet-rich plasma; type: cell-based; design: % Inhibition Of Activity: Platelet Agg. ADP / % Inhibition Of Activity: Platelet Agg. AA / % Inhibition Of Activity: Platelet Agg. Coll: concentration or dose not given beside the values; conditions: for % Inhibition Of Activity: Platelet Agg. ADP: ADP-induced; for % Inhibition Of Activity: Platelet Agg. AA: arachidonic acid-induced; for % Inhibition Of Activity: Platelet Agg. Coll: collagen-induced; for Inhibition (%) Of Platelet Aggregation, Adenosine Diphosphate (ADP) 2.5 μM / Inhibition (%) Of Platelet Aggregation, Arachidonic Acid (AA) 0.3 mM / Inhibition (%) Of Platelet Aggregation, Collagen (COLL) 2 μg/ml / Inhibition (%) Of Platelet Aggregation, Epinephrine: peptide inhibitors 30 & 100 μM
Experimental: FIG. 9 presents exemplary data showing platelet aggregation modulation using 0.5 ml of normal human platelet-rich plasma (PRP) with varying amounts of P149 or P 149b using 2.5×10^6 platelets per reaction vessel.
FIG. 10 presents exemplary data showing platelet aggregation activation by arachidonic acid (AA) and collagen using P149-treated platelet suspensions • Panel A1: AA alone; • Panel A2: AA followed by epinephine (EPI) and EPI alone using P149b; • Panel A3: CD62P flow cytometry fluorescence quenching by P149; • Panel B1: collagen alone and collagen+P149; • Panel B2: collagen alone; collagen+P149a showing aggregation diminution.
GIP-derived peptide fragments and/or subfragments have been assayed for platelet aggregation by measuring light transmissions with an aggregometer using a stirred human platelet suspension. Kinlough-Rathbone et al., In: Platelet Aggregation in Measurements of Platelet Function, Eds. Harker L A, Zimmerman T S., Churchill Livingstone, London. pp. 64-87 (1983); and Whittle et al., “Specificity between the anti-aggregatory actions of prostacyclin, prostaglandin Eland D2 on platelets” In: Mechanisms of stimulus—response coupling in platelets, Eds. V. V. K., MacIntyre D E, Scully M F., New York and London: Plenum Press. pp. 109-115 (1985).
The ability of GIP and its fragments were individually examined for aggregation inhibition using citrated human platelet-rich plasma (PRP). The peptides were freshly dissolved in 0.15 M NaCl containing 2.5×10^6 platelets/ml. […]

[7] = tested on: 6WI-1 mammary tumor cells; test: Mouse ascites mammary tumor assay (6WI-1 isograft); type: in vivo; conditions: for Suppression of accumulation of cells and ascites fluid volume (anticancer activity): 1.0 μg peptide per day for 11 days; for % Inhibition Of Activity: 6WI-1 Acites Volume / % Inhibition Of Activity: 6WI-1 Body Weight / % Inhibition Of Activity: 6WI-1 Cell Prol: 6WI-1 mouse mammary ascites tumor
Experimental: The growth suppression of the mammary ascites tumor by AFP peptides and its fragments P149a, P149b and P149c, and control peptides were determined in non-estrogen dependent assays which measured tumor cell growth and ascites accumulation of 6WI-1 mammary transplanted NYLAR/nya mice. […] Tumor cell inocula included doses of 0.3, 1.0, and 3.0×10^6 cells which produced host mortality at 12-14 days which was lethal in 100% of the animals. Following peptide dose titration studies, mice inoculated with 6WI-1 mammary cells were injected with a previously-determined optimal dose of 1.0 μg peptide per day or saline for 11 days. On day 12 following inoculation, the total accumulated ascites fluid volume and tumor cells in the peritoneal cavity of each animal were harvested and the cell count determined.
Inoculation of mice with all three cell doses led to an increase in body weight from 25 g (day 0) to approximately […] by day 12, due to the accumulation of tumor cells and ascites fluid in the intraperitoneal cavity. An average cell count in accumulated ascites fluid on day 12 was greater than 10^8 cells/ml with a total ascites volume approximating 20 mls. Tumor cell proliferation in this model has been reported to correlate with the volume of ascites fluid accumulated.
The 6WI-1 mouse mammary tumor studies involving peptide and non-peptide treatment were further compared by histopathological analysis performed on hematoxylin/eosin stained tissue sections.

[8] = tested on: MCF-7 cells; test: Estrogen-dependent MCF-7 foci formation assay; type: cell-based, human; design: % Inhibition Of Activity: MCF-7 foci formation: concentration or dose not given beside the values
Description: Mizejewski et al., “Alpha-fetoprotein derived synthetic peptides: assay of an estrogen-modifying regulatory segment” Mol Cell Endocrinol 118:15-23 (1996). The P149 peptide inhibited the formation of tumor cell foci formed as a result of the accumulation of breast cancer cells which clump together due to loss of contact inhibition.

[9] = tested on: MCF-7 and 6WI-1 tumor cells; test: Tumor cell adhesion to ECM proteins in microtiter plates; type: cell-based, human, murine
Experimental: FIG. 8 presents exemplary data showing the inhibition of P149 in the cellular adhesion of cancer cells to extracellular matrix (ECM) proteins for both human MCF-7 breast cancer cells and for murine 6WI-1 ascites-adapted mammary tumor cells. The cellular adhesion assay was performed in 96-well microtiter plates (Nunc Company, Denmark, catalog #263339) and the wells were pre-coated with 100 microliters of each of the above-mentioned ECM proteins for 24 hours as previously determined. After adding tumor cells, the plates were then incubated at 37° C. for various times; while 6WI-1 cells usually required only 2-4 hours incubation for adhesion; MCF-7 cells required 24 hours for attachment following trypsinization. For both cell lines, the cell culture media contained 5% calf serum to ensure cell attachment. The plates were washed twice with Hank's Saline, fixed in 0.5 mL of 37% formaldehyde, stained with crystal violet and read at […] on a microplate reader. Inset: Using a CyQUANT® stain kit, (Hoechst Corp., Germany) the plates were first exposed to a freeze/thaw cycle at −70° C. for 24 hours and 37° C. for 10 minutes. CyQUANT® buffer solution (150 microliters) was added to each well, and the cell adhesion was measured by fluorescence spectroscopy and quantitated using an ImageQuant® plate scanner (Fluorimager 595, Molecular Dynamics, Sunnyvale, Calif.).
This attachment of GIP was a slightly weaker adhesion matrix than was gelatin, chondroitin sulfate, and poly-lysine which approximated 30-35%. Using P149, the optimal amount of peptide required to inhibit tumor cell adhesion was determined by absorbing soluble peptide (1.0 pg to 100 μg) to the walls of microtiter plates. A constant number of MCF-7 tumor cells (i.e., for example, 1×10^5) were then added to the microtiter well and adhesion quantitated by fluorescence. […] The quantitation of MCF-7 and 6WI-1 cell adhesion in the presence of peptide versus peptide-free media was then determined on ECM-coated microtiter plates using 3 μg GIP/well as a competitive inhibitor. The P149 peptide was added to the wells immediately after the cells were dispensed and then the mixture was incubated as described. The AFP peptide was capable of cell adhesion inhibition in most of the ECM proteins in both tumor cell lines. Inhibition of mouse and human tumor cell adhesion was somewhat equivalent using collagen IV, fibrinogen, fibronectin, and thrombospondin. […] Thus, the GIP was found capable of eliciting different attachment inhibitions dependent on the type of ECM protein coating the wall of the microtiter plate and also the tumor cell type involved.

Row | Molecule | % Inhibition Of Activity: Estrogen Fetotoxicty [1] [%] | % Inhibition Of Activity: 6WI-1 Pup Ascites [2] [%] | % Inhibition Of Activity: Kidney tumor growth [3] [%] | % Inhibition Of Activity: Uterine Growth, Enzymatic Fragments [4] [%] | % Inhibition Of Activity: Uterine Growth [5] [%] | % Inhibition Of Activity: Platelet Agg. ADP [6] [%] | % Inhibition Of Activity: Platelet Agg. AA [6] [%] | % Inhibition Of Activity: Platelet Agg. Coll [6] [%] | Inhibition (%) Of Platelet Aggregation, Adenosine Diphosphate (ADP) 2.5 μM [6] | Inhibition (%) Of Platelet Aggregation, Arachidonic Acid (AA) 0.3 mM [6] | Inhibition (%) Of Platelet Aggregation, Collagen (COLL) 2 μg/ml [6] | Inhibition (%) Of Platelet Aggregation, Epinephrine [6] | Suppression of accumulation of cells and ascites fluid volume (anticancer activity) [7] | % Inhibition Of Activity: 6WI-1 Acites Volume [7] [%] | % Inhibition Of Activity: 6WI-1 Body Weight [7] [%] | % Inhibition Of Activity: 6WI-1 Cell Prol [7] [%] | % Inhibition Of Activity: MCF-7 foci formation [8] [%] | % Inhibition Of Activity: Cell Adhesion [9] [%] | further results
1 | AADIIIGHLCIRHE (listed as Homo sapiens) [P149b] | 67 | 32 | 50 | 19 | 22 | 95 | 100 | 90 | 95-98% | 100% | 90% | No effect | but not P149a or P149b, significantly suppressed | 26 | 31 | 34 | 31 | 58 | Inhibition of ADP-induced platelet aggregation (FIG. 9) ([6]; 0.5 ml PRP, 2.5×10^6 platelets per reaction vessel): 70%; Inhibition of ADP-induced platelet aggregation ([6]; ADP 3 μM, P149 at 100-300 μM PRP): 80-90%; Inhibition of arachidonic acid (AA)-induced platelet aggregation ([6]; for several minutes until epinephrine was added): complete aggregation inhibition
2 | HPEAKRMPCAEDYLSVVLNQLCVLEHKTPVSDRV (listed as Homo sapiens) [P263, reference compound] | 0 | 0 | 0 | 0 | 0 | 0 | 0 | 0 | – | – | – | – | – | 10 | 13 | 5 | 0 | 0 | % Inhibition Of Activity: 6WI-1 Peptide Combos ([7]; peptide combination): 0%
3 | LSEDKLLACGEG (listed as Homo sapiens) [P149a] | 63 | 21 | 25 | 24 | 28 | 40 | 0 | 0 | 30-40 (biphasic % | No effect | No effect | No effect | but not P149a or P149b, significantly suppressed | 21 | 22 | 28 | 33 | – | –
4 | Risotcetin [reference compound] | – | – | – | – | – | – | – | – | 100% | 100% | 100% | 100% | – | – | – | – | – | – | –
5 | B1 | – | – | – | – | – | – | – | – | 85-90% | 100% | 90% | No effect | – | – | – | – | – | – | –
